Patent US20070123546A1, “2-amino-7,8-dihydro-6H-pyrido[4,3-d]pyrimidin-5-ones” (Chiron Corporation, priority 2005, published 2007)

Target: His-tagged N-terminal ATP binding domain (amino acid residues 9-236) of HSP90α (Homo sapiens, UniProt P07900)
Assay: HSP90 inhibitor binding potency: TRF competition binding assay
Details: Table 1; competition with biotinylated radicicol
Experimental: HSP90 Inhibitor Binding Potency: TRF Binding Assay
In this example, the binding potency of HSP90 inhibitors as measured by a TRF binding assay is described.
TRF competition binding assays were performed to determine the binding potency (IC50 values) of HSP90 inhibitors. Purified His-tagged N-terminal ATP binding domain (amino acid residues 9-236) of HSP90α (HSP90α GeneID: 3320; mRNA Sequence NM_005348) was incubated for two hours at room temperature in binding buffer (50 mM HEPES, 6 mM MgCl2, 20 mM KCl and 0.1% BSA) with biotinylated radicicol and progressively higher concentrations of the competing compounds. A fraction of the mixture was transferred to capture plates (coated with streptavidin) and incubated for one hour at room temperature. After washing with DELFIA wash buffer, europium-labeled anti-his antibody was added and incubated for two hours at room temperature, followed by washing with DELFIA buffer. DELFIA enhancement solution was then added. After gentle shaking for 10 minutes, the plates were read in VICTOR for europium counts.

IC50 [µM] | Compound
< 10 | COc1cncc(-c2cc(F)ccc2C2Cc3nc(N)nc(C)c3C(=O)N2C)n1 (stereo not shown) [Compound 12, 2-Amino-7-[4-fluoro-2-(6-methoxy-pyrazin-2-yl)-phenyl]-4,6-dimethyl-7,8-dihydro-6H-pyrido[4,3-d]pyrimidin-5-one]
< 10 | COc1ccccc1-c1cc(F)ccc1C1Cc2nc(N)nc(C)c2C(=O)N1 (stereo not shown) [Compound 23, 2-Amino-7-(5-fluoro-2′-methoxy-biphenyl-2-yl)-4-methyl-7,8-dihydro-6H-pyrido[4,3-d]pyrimidin-5-one]
> 10 | COc1ncccc1-c1cc(F)ccc1C1Cc2nc(N)nc(C)c2C(=O)N1 (stereo not shown) [Compound 25, 2-Amino-7-[4-fluoro-2-(2-methoxy-pyridin-3-yl)-phenyl]-4-methyl-7,8-dihydro-6H-pyrido[4,3-d]pyrimidin-5-one]
> 10 | COc1ccc([C@H](C)N2C(=O)c3c(C)nc(N)nc3C[C@@H]2c2ccc(F)cc2Br)cc1 [Compound 4, (R)-2-Amino-7-(2-bromo-4-fluoro-phenyl)-6-[(S)-1-(4-methoxy-phenyl)-ethyl]-4-methyl-7,8-dihydro-6H-pyrido[4,3-d]pyrimidin-5-one]
> 10 | Cc1nc(N)nc2c1C(=O)NC(c1ccc(F)cc1-c1cn[nH]c1)C2 (stereo not shown) [Compound 31, 2-Amino-7-[4-fluoro-2-(1H-pyrazol-4-yl)-phenyl]-4-methyl-7,8-dihydro-6H-pyrido[4,3-d]pyrimidin-5-one]
> 10 | COc1ncccc1-c1cc(F)ccc1C1Cc2nc(N)nc(C)c2C(=O)N1CC(C)(C)N1CCOCC1 (stereo not shown) [Compound 38, 2-Amino-7-[4-fluoro-2-(2-methoxy-pyridin-3-yl)-phenyl]-4-methyl-6-(2-methyl-2-morpholin-4-yl-propyl)-7,8-dihydro-6H-pyrido[4,3-d]pyrimidin-5-one]
< 10 | COc1cncc(-c2ccccc2C2Cc3nc(N)nc(C)c3C(=O)N2)n1 (stereo not shown) [Compound 10, 2-Amino-7-[2-(6-methoxy-pyrazin-2-yl)-phenyl]-4-methyl-7,8-dihydro-6H-pyrido[4,3-d]pyrimidin-5-one]
< 10 | Cc1nc(N)nc2c1C(=O)NC(c1ccc(F)cc1-c1ccccc1F)C2 (stereo not shown) [Compound 14, 2-Amino-7-(5,2′-difluoro-biphenyl-2-yl)-4-methyl-7,8-dihydro-6H-pyrido[4,3-d]pyrimidin-5-one]

Same assay, conditions: Table 2; competition with biotinylated radicicol

IC50 [µM] | Compound
> 10 | CCc1nc(N)nc2c1C(=O)N[C@@H](c1ccc(F)cc1Br)C2 [Compound 70, (R)-2-Amino-7-(2-bromo-4-fluoro-phenyl)-4-ethyl-7,8-dihydro-6H-pyrido[4,3-d]pyrimidin-5-one]
< 10 | CCOc1cncc(-c2cc(F)ccc2[C@H]2Cc3nc(N)nc(C)c3C(=O)N2)n1 [Compound 85, (R)-2-Amino-7-[2-(6-ethoxy-pyrazin-2-yl)-4-fluoro-phenyl]-4-methyl-7,8-dihydro-6H-pyrido[4,3-d]pyrimidin-5-one]
< 10 | COc1cccc(-c2ccccc2[C@H]2Cc3nc(N)ncc3C(=O)N2)n1 [Compound 43, (R)-2-Amino-7-[2-(6-methoxy-pyridin-2-yl)-phenyl]-7,8-dihydro-6H-pyrido[4,3-d]pyrimidin-5-one]
< 10 | COc1ccc(-c2cc(F)ccc2[C@H]2Cc3nc(N)nc(C)c3C(=O)N2)s1 [Compound 65, (R)-2-Amino-7-[4-fluoro-2-(5-methoxy-thiophen-2-yl)-phenyl]-4-methyl-7,8-dihydro-6H-pyrido[4,3-d]pyrimidin-5-one]
< 10 | COc1nc(-c2cc(F)ccc2[C@H]2Cc3nc(N)nc(C)c3C(=O)N2)ccc1N [Compound 44, (R)-2-Amino-7-[2-(5-amino-6-methoxy-pyridin-2-yl)-4-fluoro-phenyl]-4-methyl-7,8-dihydro-6H-pyrido[4,3-d]pyrimidin-5-one]
< 10 | CCOc1nc(-c2cc(F)ccc2[C@H]2Cc3nc(N)ncc3C(=O)N2)cnc1N [Compound 83, (R)-2-Amino-7-[2-(5-amino-6-ethoxy-pyrazin-2-yl)-4-fluoro-phenyl]-7,8-dihydro-6H-pyrido[4,3-d]pyrimidin-5-one]

Same assay, conditions: Table 3; competition with biotinylated radicicol

IC50 [µM] | Compound
< 10 | COc1cccc(-c2cc(F)ccc2[C@H]2Cc3nc(N)nc(C)c3C(=O)N2Cc2ccccc2F)n1 [Compound 123, (R)-2-Amino-6-(2-fluoro-benzyl)-7-[4-fluoro-2-(6-methoxy-pyridin-2-yl)-phenyl]-4-methyl-7,8-dihydro-6H-pyrido[4,3-d]pyrimidin-5-one]
< 10 | COc1nc(-c2cc(F)ccc2[C@H]2Cc3nc(N)nc(C)c3C(=O)N2Cc2ccc(F)cc2)cnc1N [Compound 162, (R)-2-Amino-7-[2-(5-amino-6-methoxy-pyrazin-2-yl)-4-fluoro-phenyl]-6-(4-fluoro-benzyl)-4-methyl-7,8-dihydro-6H-pyrido[4,3-d]pyrimidin-5-one]
< 10 | Cc1nc(N)nc2c1C(=O)N(Cc1ccccc1)[C@@H](c1ccc(F)cc1-c1cccnc1F)C2 [Compound 143, (R)-2-Amino-6-benzyl-7-[4-fluoro-2-(2-fluoro-pyridin-3-yl)-phenyl]-4-methyl-7,8-dihydro-6H-pyrido[4,3-d]pyrimidin-5-one]
< 10 | COc1cncc(-c2cc(F)ccc2[C@H]2Cc3nc(N)nc(C)c3C(=O)N2Cc2cccc(C(F)(F)F)c2)n1 [Compound 127, (R)-2-Amino-7-[4-fluoro-2-(6-methoxy-pyrazin-2-yl)-phenyl]-4-methyl-6-(3-trifluoromethyl-benzyl)-7,8-dihydro-6H-pyrido[4,3-d]pyrimidin-5-one]
< 10 | COc1nc(-c2cc(F)ccc2[C@H]2Cc3nc(N)ncc3C(=O)N2)cnc1N [Compound 97, (R)-2-Amino-7-[2-(5-amino-6-methoxy-pyrazin-2-yl)-4-fluoro-ohenyl]-7,8-dihydro-6H-pyrido[4,3-d]pyrimidin-5-one]
< 10 | COc1ncc(-c2cc(F)ccc2[C@H]2Cc3nc(N)nc(C)c3C(=O)N2Cc2cccc(Cl)c2)nc1OC [Compound 117, (R)-2-Amino-6-(3-chloro-benzyl)-7-[2-(5,6-dimethoxy-pyrazin-2-yl)-4-fluoro-phenyl]-4-methyl-7,8-dihydro-6H-pyrido[4,3-d]pyrimidin-5-one]
> 10 | COc1ncc(-c2cc(F)ccc2[C@H]2Cc3nc(N)nc(C)c3C(=O)N2Cc2ccccc2)c(OC)n1 [Compound 141, (R)-2-Amino-6-benzyl-7-[2-(2,4-dimethoxy-pyrimidin-5-yl)-4-fluoro-phenyl]-4-methyl-7,8-dihydro-6H-pyrido[4,3-d]pyrimidin-5-one]
< 10 | COc1nc(-c2cc(F)ccc2[C@H]2Cc3nc(N)nc(C)c3C(=O)N2)cnc1N [Compound 101, (R)-2-Amino-7-[2-(5-amino-6-methoxy-pyrazin-2-yl)-4-fluoro-phenyl]-4-methyl-7,8-dihydro-6H-pyrido[4,3-d]pyrimidin-5-one]
< 10 | COc1cccc(-c2cc(F)ccc2[C@H]2Cc3nc(N)nc(C)c3C(=O)N2Cc2ccc(F)cc2)n1 [Compound 160, (R)-2-Amino-6-(4-fluoro-benzyl)-7-[4-fluoro-2-(6-methoxy-pyridin-2-yl)-phenyl]-4-methyl-7,8-dihydro-6H-pyrido[4,3-d]pyrimidin-5-one]

Same assay, conditions: Table 4; competition with biotinylated radicicol

IC50 [µM] | Compound
< 10 | CCc1nc(N)nc2c1C(=O)N[C@@H](c1ccccc1-c1cnc(N)c(OC)n1)C2 [Compound 200, (R)-2-Amino-7-[2-(5-amino-6-methoxy-pyrazin-2-yl)-phenyl]-4-ethyl-7,8-dihydro-6H-pyrido[4,3-d]pyrimidin-5-one]
< 10 | COc1cncc(-c2scnc2[C@@H]2Cc3nc(N)nc(C)c3C(=O)N2)n1 [Compound 233, (S)-2-Amino-7-[5-(6-methoxy-pyrazin-2-yl)-thiazol-4-yl]-4-methyl-7,8-dihydro-6H-pyrido[4,3-d]pyrimidin-5-one]
≥ 10 | Cc1nc(N)nc2c1C(=O)N[C@@H](c1ccc(F)cc1-c1nccc(N3CCCC3)n1)C2 [Compound 207, (R)-2-Amino-7-[4-fluoro-2-(4-pyrrolidin-1-yl-pyrimidin-2-yl)-phenyl]-4-methyl-7,8-dihydro-6H-pyrido[4,3-d]pyrimidin-5-one]
< 10 | CCOc1nc(-c2cc(OC)ccc2[C@H]2Cc3nc(N)nc(C)c3C(=O)N2)cnc1N [Compound 238, (R)-2-Amino-7-[2-(5-amino-6-ethoxy-pyrazin-2-yl)-4-methoxy-phenyl]-4-methyl-7,8-dihydro-6H-pyrido[4,3-d]pyrimidin-5-one]
< 10 | COc1cncc(-c2ccccc2[C@H]2Cc3nc(N)ncc3C(=O)N2)n1 [Compound 203, (R)-2-Amino-7-[2-(6-methoxy-pyrazin-2-yl)-phenyl]-7,8-dihydro-6H-pyrido[4,3-d]pyrimidin-5-one]
< 10 | Cc1cccc(-c2cc(F)ccc2[C@H]2Cc3nc(N)ncc3C(=O)N2)c1 [Compound 180, (R)-2-Amino-7-(5-fluoro-3′-methyl-biphenyl-2-yl)-7,8-dihydro-6H-pyrido[4,3-d]pyrimidin-5-one]
< 10 | COc1ncc(-c2ccccc2[C@H]2Cc3nc(N)nc(C)c3C(=O)N2)nc1OC [Compound 189, (R)-2-Amino-7-[2-(5,6-dimethoxy-pyrazin-2-yl)-phenyl]-4-methyl-7,8-dihydro-6H-pyrido[4,3-d]pyrimidin-5-one]
< 10 | CCOc1cccc(-c2cc(F)ccc2[C@H]2Cc3nc(N)nc(C)c3C(=O)N2)n1 [Compound 187, (R)-2-Amino-7-[2-(6-ethoxy-pyridin-2-yl)-4-fluoro-phenyl]-4-methyl-7,8-dihydro-6H-pyrido[4,3-d]pyrimidin-5-one]
